Reference: ChEMBL document CHEMBL4028802, “DILIrank: the largest reference drug list ranked by the risk for developing drug-induced liver injury in humans” (Drug Discov Today, 2016)
Starred links: 1 amine or outer side, 2 acyl side, 3 side chain; linkers in the order of their positions; H or OH if unused. Positions of bridges follow the written chain, without caps; N, C: chain ends. Non-standard residues stand in square brackets, D forms with d. Residues, ends and D or L forms follow the SMILES beside them. Chains are numbered I, II in the order given. *: point of attachment. Actinocin(9to1) = Cc1c2oc3c(C)ccc(C(=O)[*:1])c3nc-2c(C(=O)[*:2])c(N)c1=O; dPhe(4-NHCONH2) = NC(=O)Nc1ccc(C[C@@H](N)C(=O)O)cc1; Dihydroorotyl(S) = O=C1C[C@@H](C(=O)*)NC(=O)N1; dPhe(4-Cl) = N[C@H](Cc1ccc(Cl)cc1)C(=O)O; Phe(4-NH2) = Nc1ccc(C[C@H](N)C(=O)O)cc1; d2Nal = N[C@H](Cc1ccc2ccccc2c1)C(=O)O; Lys(iPr) = CC(C)NCCCC[C@H](N)C(=O)O; d3Pal = N[C@H](Cc1cccnc1)C(=O)O; NMeV = CN[C@H](C(=O)O)C(C)C; Sar = CNCC(=O)O

Assays:
[1] = species on record: Homo sapiens; assay: Liver toxicity in human assessed as induction of drug-induced liver injury by measuring severity class index
[2] = species on record: Homo sapiens; assay: Liver toxicity in human assessed as induction of drug-induced liver injury by measuring verified drug-induced liver injury concern status
Wherever DILI severity class is given: key of the grades not given here.

SMILES | DILI_severity_class [1] | DILI_Concern [2]
Cc1c2oc3c(C)ccc(C(=O)N[C@@H]4C(=O)N[C@H](C(C)C)C(=O)N5CCC[C@H]5C(=O)N(C)CC(=O)N(C)[C@@H](C(C)C)C(=O)O[C@@H]4C)c3nc-2c(C(=O)N[C@@H]2C(=O)N[C@H](C(C)C)C(=O)N3CCC[C@H]3C(=O)N(C)CC(=O)N(C)[C@@H](C(C)C)C(=O)O[C@@H]2C)c(N)c1=O [DACTINOMYCIN] (I: T[dV]P[Sar][NMeV] / II: T[dV]P[Sar][NMeV]; ester I:1-I:C, II:1-II:C; linker I:N-II:N via Actinocin(9to1)) | 8 | Most-Dili-Concern
C#C[C@]1(O)CC[C@H]2[C@@H]3CCC4=Cc5oncc5C[C@]4(C)[C@H]3CC[C@@]21C [DANAZOL] | 8 | Most-Dili-Concern
O=C1CN(/N=C/c2ccc(-c3ccc([N+](=O)[O-])cc3)o2)C(O)=N1 [DANTROLENE] | 8 | Most-Dili-Concern
Nc1ccc(S(=O)(=O)c2ccc(N)cc2)cc1 [DAPSONE] | 3 | Less-Dili-Concern
CCCCCCCCCC(=O)N[C@@H](Cc1c[nH]c2ccccc12)C(=O)N[C@H](CC(N)=O)C(=O)N[C@@H](CC(=O)O)C(=O)N[C@@H]1C(=O)NCC(=O)N[C@@H](CCCN)C(=O)N[C@@H](CC(=O)O)C(=O)N[C@H](C)C(=O)N[C@@H](CC(=O)O)C(=O)NCC(=O)N[C@H](CO)C(=O)N[C@@H]([C@H](C)CC(=O)O)C(=O)N[C@@H](CC(=O)c2ccccc2N)C(=O)O[C@@H]1C [DAPTOMYCIN] | 5 | Less-Dili-Concern
NC(=O)C(c1ccccc1)(c1ccccc1)[C@@H]1CCN(CCc2ccc3c(c2)CCO3)C1 [DARIFENACIN] | 0 | No-Dili-Concern
Cc1nc(Nc2ncc(C(=O)Nc3c(C)cccc3Cl)s2)cc(N2CCN(CCO)CC2)n1.O [DASATINIB] | 4 | Less-Dili-Concern
COc1cccc2c1C(=O)c1c(O)c3c(c(O)c1C2=O)C[C@@](O)(C(C)=O)C[C@@H]3O[C@H]1C[C@H](N)[C@H](O)[C@H](C)O1 [DAUNORUBICIN] | 0 | No-Dili-Concern
Nc1ncn([C@H]2C[C@H](O)[C@@H](CO)O2)c(=O)n1 [DECITABINE] | 4 | Ambiguous-Dili-Concern
O=C(O)c1ccc(-n2nc(-c3ccccc3O)nc2-c2ccccc2O)cc1 [DEFERASIROX] | 7 | Most-Dili-Concern
CC(=O)N(O)CCCCCNC(=O)CCC(=O)N(O)CCCCCNC(=O)CCC(=O)N(O)CCCCCN [DEFEROXAMINE] | 0 | Less-Dili-Concern
CC(=O)N[C@H](Cc1ccc2ccccc2c1)C(=O)N[C@H](Cc1ccc(Cl)cc1)C(=O)N[C@H](Cc1cccnc1)C(=O)N[C@@H](CO)C(=O)N[C@@H](Cc1ccc(NC(=O)[C@@H]2CC(=O)NC(=O)N2)cc1)C(=O)N[C@H](Cc1ccc(NC(N)=O)cc1)C(=O)N[C@@H](CC(C)C)C(=O)N[C@@H](CCCCNC(C)C)C(=O)N1CCC[C@H]1C(=O)N[C@H](C)C(N)=O [DEGARELIX] (Ac-[d2Nal][dPhe(4-Cl)][d3Pal]S[Phe(4-NH2)](Dihydroorotyl(S))[dPhe(4-NHCONH2)]L[Lys(iPr)]P[dA]-NH2) | 3 | Ambiguous-Dili-Concern
CC(C)Nc1cccnc1N1CCN(C(=O)c2cc3cc(NS(C)(=O)=O)ccc3[nH]2)CC1 [DELAVIRDINE] | 5 | Ambiguous-Dili-Concern
CN(C)[C@@H]1C(O)=C(C(N)=O)C(=O)[C@@]2(O)C(O)=C3C(=O)c4c(O)ccc(Cl)c4[C@@H](O)[C@H]3C[C@@H]12 [DEMECLOCYCLINE] | 3 | Ambiguous-Dili-Concern
CNCCCN1c2ccccc2CCc2ccccc21 [DESIPRAMINE] | 3 | Ambiguous-Dili-Concern
Clc1ccc2c(c1)CCc1cccnc1C2=C1CCNCC1 [DESLORATADINE] | 3 | Less-Dili-Concern
